Reference: ChEMBL document CHEMBL1201862, “PubChem BioAssay data set” (2004)
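Cultured in 96-well plates, cells were exposed to test compound for 48 hours across five concentrations. GI50 is the concentration that inhibits growth by half.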 Activity calls are given as the source filed them. No stated cut-off is given here; in the data, active = GI50 up to about 1.1 µM and inactive = higher.

Legend:
Test in all cases: NCI anticancer screen, dose series, 48 h
A549 = system: A549
ACHN = system: ACHN
CCRF-CEM = system: CCRF-CEM
K562 = system: K562
M19-MEL = system: M19-MEL
MOLT-4 = system: MOLT-4
NCI-H23 = system: NCI-H23
NCI-H460 = system: NCI-H460
SN12C = system: SN12C
SNB-19 = system: SNB-19
SNB-75 = system: SNB-75
SR = system: SR
SW-620 = system: SW-620
TK-10 = system: TK-10
UACC-62 = system: UACC-62
UO-31 = system: UO-31
CAKI-1 = system: CAKI-1
MDA-MB-435 = system: MDA-MB-435
PC-3 = system: PC-3
MCF7 = system: MCF7

| Compound | GI50 (A549) | GI50 (ACHN) | GI50 (CCRF-CEM) | GI50 (K562) | GI50 (M19-MEL) | GI50 (MOLT-4) | GI50 (NCI-H23) | GI50 (NCI-H460) | GI50 (SN12C) | GI50 (SNB-19) | GI50 (SNB-75) | GI50 (SR) | GI50 (SW-620) | GI50 (TK-10) | GI50 (UACC-62) | GI50 (UO-31) | GI50 (CAKI-1) | GI50 (MDA-MB-435) | GI50 (PC-3) | GI50 (MCF7) |
| --- | --- | --- | --- | --- | --- | --- | --- | --- | --- | --- | --- | --- | --- | --- | --- | --- | --- | --- | --- | --- |
| CC(=O)Nc1ccc(Cl)c(Cl)c1 | > 100 µM (inactive) | > 100 µM (inactive) | > 100 µM (inactive) | > 100 µM (inactive) | > 100 µM (inactive) | > 100 µM (inactive) | > 100 µM (inactive) | > 100 µM (inactive) | > 100 µM (inactive) | > 100 µM (inactive) | > 100 µM (inactive) | > 100 µM (inactive) | > 100 µM (inactive) | > 100 µM (inactive) | > 100 µM (inactive) | > 100 µM (inactive) | – | – | – | – |
| O=C1C=C(Nc2ccc(Br)cc2)c2ccccc2C1=O | 12.7 µM (inactive) | 4.75 µM (inactive) | 11 µM (inactive) | 13.9 µM (inactive) | 1.73 µM (inactive) | 10.9 µM (inactive) | 3.33 µM (inactive) | 7.28 µM (inactive) | 15.2 µM (inactive) | 15.6 µM (inactive) | 11 µM (inactive) | 2.54 µM (inactive) | 12.9 µM (inactive) | 19.6 µM (inactive) | 4.39 µM (inactive) | 16 µM (inactive) | – | – | – | – |
| O=C(O)/C(=C/c1ccccc1[N+](=O)[O-])c1ccccc1 | > 100 µM (inactive) | > 100 µM (inactive) | – | > 100 µM (inactive) | > 100 µM (inactive) | > 100 µM (inactive) | > 100 µM (inactive) | > 100 µM (inactive) | > 100 µM (inactive) | > 100 µM (inactive) | > 100 µM (inactive) | > 100 µM (inactive) | > 100 µM (inactive) | > 100 µM (inactive) | > 100 µM (inactive) | > 100 µM (inactive) | > 100 µM (inactive) | – | – | – |
| COC(=O)C12OCC34C(CC5C(C)=CC(=O)C(O)C5(C)C3C(O)C1O)OC(=O)C(OC(=O)CC(C)C)C24 (stereo not drawn) | 0.0013 µM (active) | < 0.0371 µM (active) | 0.000486 µM (active) | – | 0.00134 µM (active) | – | 0.000778 µM (active) | 0.00046 µM (active) | 0.00366 µM (active) | 0.0014 µM (active) | 0.00216 µM (active) | 0.000327 µM (active) | 0.002 µM (active) | 0.0444 µM (active) | 0.00223 µM (active) | 0.00738 µM (active) | 0.005 µM (active) | 0.00103 µM (active) | 0.000871 µM (active) | – |
| COC(=O)C1=C(c2ccc3c(c2)OCO3)O[C@H](c2ccc3c(c2)OCO3)[C@H]1COC(C)=O | 46.7 µM (inactive) | 29.4 µM (inactive) | 78.9 µM (inactive) | 35.4 µM (inactive) | 33.3 µM (inactive) | 35.2 µM (inactive) | 37.3 µM (inactive) | 63.5 µM (inactive) | 45.2 µM (inactive) | – | 49.5 µM (inactive) | 32.1 µM (inactive) | > 100 µM (inactive) | 46.7 µM (inactive) | 38.6 µM (inactive) | 38.7 µM (inactive) | 27.5 µM (inactive) | – | – | – |
| CCCCCCCCCc1cc(=O)c2c(O)cccc2o1 | 41.8 µM (inactive) | 42.7 µM (inactive) | 30.8 µM (inactive) | 29.2 µM (inactive) | > 10 µM (inactive) | 20.4 µM (inactive) | 65.5 µM (inactive) | 56.2 µM (inactive) | 87.3 µM (inactive) | 74.3 µM (inactive) | > 10 µM (inactive) | 37.4 µM (inactive) | 57.9 µM (inactive) | 54 µM (inactive) | 58.2 µM (inactive) | 37.1 µM (inactive) | 69.3 µM (inactive) | – | – | – |
| CCOC(=O)Nc1cc2nnc(-c3ccccc3)nc2c(N)n1 | 4.81 µM (inactive) | 5.7 µM (inactive) | 32.1 µM (inactive) | 5.14 µM (inactive) | 4.35 µM (inactive) | – | 14.1 µM (inactive) | 3.28 µM (inactive) | 35.2 µM (inactive) | 32.1 µM (inactive) | 14.9 µM (inactive) | 23.9 µM (inactive) | 14.6 µM (inactive) | 37.5 µM (inactive) | 9.35 µM (inactive) | 27.9 µM (inactive) | 27.6 µM (inactive) | – | – | – |
| CO[C@@H]1[C@H](OC(=O)NC(=O)CCl)CC[C@]2(CO2)[C@H]1[C@@]1(C)O[C@@H]1CC=C(C)C [O-CHLOROACETYLCARBAMOYLFUMAGILLOL] | 7.23 µM (inactive) | 14.1 µM (inactive) | 0.9 µM (active) | 12.2 µM (inactive) | 6.49 µM (inactive) | 6.56 µM (inactive) | 15.8 µM (inactive) | 2.04 µM (inactive) | 13.7 µM (inactive) | 12 µM (inactive) | 7.96 µM (inactive) | 5.64 µM (inactive) | 9.53 µM (inactive) | 18.3 µM (inactive) | 12 µM (inactive) | 9.89 µM (inactive) | 11 µM (inactive) | 11.7 µM (inactive) | 10.7 µM (inactive) | 12.4 µM (inactive) |
| C[S+](C)C1(c2ccccc2)C(=O)c2ccccc2C1=O | 36.4 µM (inactive) | > 65.6 µM (inactive) | > 46.9 µM (inactive) | > 51.6 µM (inactive) | > 100 µM (inactive) | > 83.2 µM (inactive) | > 65.9 µM (inactive) | > 55.6 µM (inactive) | > 100 µM (inactive) | 39 µM (inactive) | 29.2 µM (inactive) | > 72.8 µM (inactive) | > 100 µM (inactive) | > 100 µM (inactive) | > 41 µM (inactive) | 32.1 µM (inactive) | > 100 µM (inactive) | 42.6 µM (inactive) | 76.2 µM (inactive) | > 100 µM (inactive) |
| Cc1ccc(C(=O)OC(C)C)cc1/N=N/N(C)C | > 100 µM (inactive) | > 88.5 µM (inactive) | 75.2 µM (inactive) | > 100 µM (inactive) | 97.7 µM (inactive) | > 100 µM (inactive) | 45.3 µM (inactive) | > 100 µM (inactive) | 97.5 µM (inactive) | > 69.8 µM (inactive) | – | > 100 µM (inactive) | > 100 µM (inactive) | > 100 µM (inactive) | > 96.2 µM (inactive) | 70 µM (inactive) | 83 µM (inactive) | > 100 µM (inactive) | 99.1 µM (inactive) | > 100 µM (inactive) |
